# According to patent US12606518B2, “Crystalline form of L-serine and process of preparing same” (ASTROGEN, INC., priority 2024, dated 2026):
# Assays:
# [1] = Thermal stability test (storage at 40° C./75% RH for 8 weeks; HPLC content, visual discoloration, XRD); assay type: physicochemical; conditions: for L-serine content from 0 week: before storage at 40° C./75% RH; for L-serine content from 0 week / L-serine content after 8 weeks: HPLC; for L-serine content after 8 weeks / Change in Crystal / Discoloration: after 8 weeks at 40° C./75% RH; for Change in Crystal: XRD; for Discoloration: visual
# Experimental: After 8 weeks, each sample was taken out and the content was analyzed using high-performance liquid chromatography (HPLC), and the presence of discoloration was visually confirmed as shown in FIG. 13. High-Performance Liquid Chromatography Conditions • Equipment: Waters Alliance e2695 • Column: […] 100, 150 mm×4.6 mm×5 μm • Column temperature: 30° C. • Flow rate: 1.0 mL/min • Detection: 210 nm, UV • Injection volume: 10 μL • Total analysis time: 40 mins • Mobile phase: […]
# [2] = Pharmacokinetic comparison after single oral administration; conditions: 400 mg/kg oral once
# [3] = Hygroscopicity test by dynamic vapor absorption (DVS); conditions: 25° C., 2-98% relative humidity
# [4] = Saturated solubility in purified water; assay type: physicochemical; conditions: on first addition of purified water
# Experimental: Then, 5 mL (or 10 mL) of this solution is taken, and placed into a 50 mL volumetric flask, purified water is filled to the mark and used as a test solution. • f. The test solution is analyzed according to HPLC operating conditions for the test of L-serine content.
# b. The resulting solution is left at room temperature for 5 minutes and then vigorously mixed using a vortexer for 30 seconds.
# c. The process b is repeated 6 times (about 30 minutes) and then the resultant is left at room temperature until the floating materials are settled.
# d. The supernatant of the solution is placed into a 2.0 mL eppendorf tube and is subject to perform centrifugation using a centrifuge at 23° C. and 4,000 rpm for 20 minutes.
# e. 1 mL of the supernatant of the solution is taken and placed into a 100 mL volumetric flask, and purified water is filled to the mark. Then, 5 mL (or 10 mL) of this solution is taken and placed into a 50 mL volumetric flask, purified water is filled to the mark, and used as a test solution.
# f. The test solution is analyzed according to HPLC operating conditions for the test of L-serine content.
# [5] = mice, n=5, after baseline correction, 400 mg/kg
Structure (SMILES),L-serine content from 0 week [1] [% →],L-serine content after 8 weeks [1] [%],Change in Crystal [1],Discoloration [1],"AUC0-12 [2, 5] [µg·h/mL]","AUC0-inf [2, 5] [µg·h/mL]","CI/F [2, 5]","Cmax ([2]; mouse, blood, po, 400 mg/kg, Cmax, mice, n=5, after baseline correction) [µg/mL]","MRT inf ([2]; mouse, blood, po, 400 mg/kg, MRT0-inf, mice, n=5, after baseline correction) [h]","Tmax ([2]; mouse, blood, po, 400 mg/kg, Tmax, mice, n=5, after baseline correction) [h]","half-life ([2]; mouse, blood, po, 400 mg/kg, t1/2, mice, n=5, after baseline correction) [h]",relative humidity at which moisture absorption started [3],"Cmax [2, 5] [µg/mL]","MRT0-inf [2, 5] [h]","Tmax [2, 5] [h]","t1/2 [2, 5] [h]",difference in maximum blood concentration (Cmax) compared to amorphous form and type A crystalline form ([2]; mice),increase of AUC0-12 compared to amorphous form and type A crystalline form of L-serine ([2]; mice) [times],Remark (hardening phenomenon during dissolution) [4]
"N[C@@H](CO)C(=O)O [Comparative Example 1, L-serine]",99.0,90.4,change in part,change to off-,100.53 ± 20.15,121.45 ± 17.20,3.35 ± 0.43 (mg/kg)/(μg/mL)/h,67.5 ± 25.9,5.11 ± 0.8,0.25,4.15 ± 0.99,40%,,,,,,,
"N[C@@H](CO)C(=O)O [Comparative Example 2, L-serine]",99.1,93.7,retained,change to off-,165.81 ± 40.99,177.36 ± 39.9,3.19 ± 0.67 (mg/kg)/(μg/mL)/h,,,,,around 70%,77.69 ± 8.49,3.44 ± 1.49,0.50,2.56 ± 0.76,,,
"N[C@@H](CO)C(=O)O [Example 3, L-serine]",99.3,99.2,retained,no change,248.89 ± 37.34,296.22 ± 69.63,2.11 ± 0.49 (mg/kg)/(μg/mL)/h,,,,,around 80%,75.48 ± 10.70,5.29 ± 2.10,0.50,3.56 ± 1.36,no significant difference,≥ 2,The procedure went smoothly
